Measurements: patent US9561228B2 (Celgene Avilomics Research, Inc., priority 2013, dated 2017)

Key:
[1] = test system: HT-29 cells (colorectal adenocarcinoma); assay: Inhibition of cancer cell proliferation, HT-29 (CellTiterGlo, 72 hours); assay type: cell-based; settings: Homo sapiens
Method in brief: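 Proliferation over 72 h at 37° C was read by CellTiterGlo luminescence, translated to cell counts with a cell-density standard curve (390–50,000 cells). Compound added as 3-fold dilutions from a 5,000 nM two-fold stock to 3000 seeded HT-29 cells; GI50 from percent inhibition relative to untreated wells.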

[2] = test system: HCT116 cells (colorectal carcinoma); assay: Inhibition of cancer cell proliferation, HCT116 (CellTiterGlo, 72 hours); assay type: cell-based; settings: Homo sapiens, HCT-116
Method in brief: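 3000 cells per well exposed to 3-fold serial compound dilutions from 5,000 nM (two-fold solution, stock level) for 72 hours at 37° C. CellTiterGlo luminescence converted to cell number via a standard curve; percent inhibition vs untreated wells, GI50 by curve fit.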

C=CC(=O)Nc1cc(CCC(N)=O)ccc1Nc1nc(Nc2cc(OC)ncc2C)ncc1C(F)(F)F [Compound I-400, N-(5-(3-amino-3-oxopropyl)-2-((2-((2-methoxy-5-methylpyridin-4-yl)amino)-5-(trifluoromethyl)pyrimidin-4-yl)amino)phenyl)acrylamide]
GI50 [1]: 101 to 500 nM
GI50 [2]: 501 to 999 nM
